From patent publication US20210346359A1, “Use of CFTR Modulators For Treating Cerebrovascular Conditions” (Qanatpharma AG, priority 2018, published 2021)
Entries after “also recorded” stand apart in the source; their conditions may differ.

Key:
[1] = target: T1, CFTR (Mus musculus, UniProt P26361); assay: Western blot of CFTR protein in cerebral arteries of naïve mice treated in vivo; set-up: Cerebral artery lysates were prepared by grinding artery samples in lysis buffer; from tissue; host or cells: cerebral arteries of male wild-type C57BL/6N mice (naïve, heart failure or subarachnoid hemorrhage models); settings: 3 mg/kg daily for 2 days, vs vehicle controls
Description: (§1) Western blots for CFTR were completed as previously described (12, 18). Cerebral artery lysates were prepared by grinding artery samples in lysis buffer containing 50 mM Tris (pH 7.3), 150 mM NaCl, 2 mM […], 0.1% Triton-X-100, 0.1% […] and protease inhibitors; the same lysis buffer was used to prepare cell culture lysates. Following lysis, the samples were centrifuged (10 minutes at 13,500 g; at 4° C.) to remove insoluble material. Immediately prior to polyacrylamide electrophoresis, additional SDS (to 2% final concentration), glycerol (to 2% final concentration), β-mercaptoethanol (to 2% final concentration) and dithiothreitol (2 mM final concentration) were added. Proteins were separated electrophoretically on 7% acrylamide gels and transferred onto polyvinylidene difluoride (PVDF) membranes. […]
(§2) The primary antibodies were conjugated with either peroxidase-labeled donkey anti-rabbit IgG (GE Healthcare Amersham (Piscataway, USA) cat# NA934) or peroxidase-labeled goat anti-mouse IgG (GE Healthcare Amersham cat# NA931) secondary antibodies. […] Developed films were evaluated densitometrically using “Image J” software (freely available from the NIH); digital images were evaluated with Image Lab software (Bio-Rad). […]

[2] = target: T1, CFTR; assay: CFTR protein in cerebral arteries of mice with heart failure; type: in vivo; set-up: Cerebral artery lysates were prepared by grinding artery samples in lysis buffer; from tissue; host or cells: cerebral arteries of male wild-type C57BL/6N mice (naïve, heart failure or subarachnoid hemorrhage models); settings: 6 weeks post-ligation, 3 mg/kg daily for 2 days
Description: as §1, §2

[3] = system: mice with heart failure; assay: Golgi stain / Sholl analysis of cortical neuron dendrite morphology in heart failure mice; type: in vivo, mouse; settings: 3 mg/kg i.p. daily for 2 weeks
Text: Brains were perfused with heparinized saline via transcardiac perfusion, isolated and processed stained utilizing a commercially available Rapid GolgiStain kit (FD NeuroTechnologies Inc.; Columbia, USA). The kit uses a modified Golgi-Cox staining procedure originally described by Glaser and Van der Loos (24). Briefly, isolated brain tissue samples were immersed in a kit-provided solution containing mercuric chloride, potassium dichromate and potassium chromate in the dark for 8 days; this was followed by a 6-day incubation with tissue protection solution. The brain samples were then washed, embedded in 4% low gelling agarose, sectioned in the coronal plane (150 μm thickness; Campden Instruments 7000 smz-2 vibrating microtome) and mounted onto gelatin-coated glass slides. The staining procedure was then completed using kit-provided developing/staining reagents, according to the manufacturer's instructions. […] We analyzed both the basal and apical dendrite networks of pyramidal cortical neurons from the frontal cortex, using a quantitative approach originally described by Shall (25). We utilized Image J software coupled with the semi-automated Simple Neurite Tracer plugin (both freely available from the NIH) to identify and digitally isolate the dendrite networks of a single cortical neuron from a 200× magnification hyperstack image. The center of the soma was marked with the pointer tool; dendrite morphology was then characterized by Sholl analysis (see https://imagej.net/Sholl_Analysis, version 3.7.4), using 5 μm intervals to a maximal radius of 300 μm. This analysis characterizes dendrite morphology in terms of dendrite intersections (i.e., branching) and dendrite length. For each treatment group, 2-4 neurons per mouse from 4 mice were analyzed under blinded conditions. To assess dendritic spine density (i.e., the number of small protrusions found on dendrites), we imaged 3rd branch order dendritic segments at 100× magnification. Spine density was measured as the number of spines per segment for the following segments: 20-50 μm from soma; 30-60 μm from soma; 50-80 μm from soma; and 60-100 μm from soma). This “sliding measurement” approach permits an assessment of how spine density changes over the length of dendritic branch. For each treatment group, spine density was measured in 2-4 pyramidal cortical neurons (2-4 third order branches per neuron) per mouse from 3-4 mice per group, under blinded conditions.

[4] = target: wild-type CFTR (Homo sapiens, UniProt P13569); settings: demonstrated earlier (15); cited from earlier work
Sequence of wild-type CFTR (P13569 whole entry, species assumed): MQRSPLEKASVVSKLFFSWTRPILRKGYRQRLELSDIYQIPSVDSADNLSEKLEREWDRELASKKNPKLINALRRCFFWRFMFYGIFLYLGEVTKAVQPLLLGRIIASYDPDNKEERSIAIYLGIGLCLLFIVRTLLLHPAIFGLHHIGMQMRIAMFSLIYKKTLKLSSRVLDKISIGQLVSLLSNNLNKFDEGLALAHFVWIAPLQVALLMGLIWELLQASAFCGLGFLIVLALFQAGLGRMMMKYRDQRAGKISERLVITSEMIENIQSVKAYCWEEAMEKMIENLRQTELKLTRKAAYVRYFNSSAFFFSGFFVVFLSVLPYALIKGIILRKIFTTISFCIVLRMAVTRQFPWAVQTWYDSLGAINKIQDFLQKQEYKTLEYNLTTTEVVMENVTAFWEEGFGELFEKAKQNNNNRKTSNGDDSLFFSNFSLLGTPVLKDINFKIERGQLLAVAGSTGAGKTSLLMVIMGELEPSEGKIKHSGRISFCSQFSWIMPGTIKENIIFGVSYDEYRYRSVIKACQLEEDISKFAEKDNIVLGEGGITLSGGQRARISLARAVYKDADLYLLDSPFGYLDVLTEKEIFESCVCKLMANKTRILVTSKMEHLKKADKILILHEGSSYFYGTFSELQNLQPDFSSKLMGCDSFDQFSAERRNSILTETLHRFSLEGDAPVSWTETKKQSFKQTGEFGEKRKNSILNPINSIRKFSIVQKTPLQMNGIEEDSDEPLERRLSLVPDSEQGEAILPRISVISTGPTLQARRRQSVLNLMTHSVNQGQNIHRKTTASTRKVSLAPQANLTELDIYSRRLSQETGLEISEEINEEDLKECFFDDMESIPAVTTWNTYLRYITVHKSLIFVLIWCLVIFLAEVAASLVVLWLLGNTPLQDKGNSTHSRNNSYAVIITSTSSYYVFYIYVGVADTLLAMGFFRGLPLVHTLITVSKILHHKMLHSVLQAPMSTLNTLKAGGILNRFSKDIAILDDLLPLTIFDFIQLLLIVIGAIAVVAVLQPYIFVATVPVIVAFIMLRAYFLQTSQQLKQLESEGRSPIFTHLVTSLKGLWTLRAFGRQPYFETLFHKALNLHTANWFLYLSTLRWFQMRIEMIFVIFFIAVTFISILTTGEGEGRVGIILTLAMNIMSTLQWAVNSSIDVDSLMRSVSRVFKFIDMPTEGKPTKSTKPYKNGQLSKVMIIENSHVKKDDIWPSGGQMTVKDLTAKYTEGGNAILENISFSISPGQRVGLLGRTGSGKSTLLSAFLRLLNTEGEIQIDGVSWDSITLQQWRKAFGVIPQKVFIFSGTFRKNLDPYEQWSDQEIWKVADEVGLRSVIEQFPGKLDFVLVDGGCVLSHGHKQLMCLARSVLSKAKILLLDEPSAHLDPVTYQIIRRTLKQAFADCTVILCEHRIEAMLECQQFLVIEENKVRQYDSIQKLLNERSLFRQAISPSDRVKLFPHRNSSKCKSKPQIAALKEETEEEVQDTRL

T1 sequence (P26361 whole entry): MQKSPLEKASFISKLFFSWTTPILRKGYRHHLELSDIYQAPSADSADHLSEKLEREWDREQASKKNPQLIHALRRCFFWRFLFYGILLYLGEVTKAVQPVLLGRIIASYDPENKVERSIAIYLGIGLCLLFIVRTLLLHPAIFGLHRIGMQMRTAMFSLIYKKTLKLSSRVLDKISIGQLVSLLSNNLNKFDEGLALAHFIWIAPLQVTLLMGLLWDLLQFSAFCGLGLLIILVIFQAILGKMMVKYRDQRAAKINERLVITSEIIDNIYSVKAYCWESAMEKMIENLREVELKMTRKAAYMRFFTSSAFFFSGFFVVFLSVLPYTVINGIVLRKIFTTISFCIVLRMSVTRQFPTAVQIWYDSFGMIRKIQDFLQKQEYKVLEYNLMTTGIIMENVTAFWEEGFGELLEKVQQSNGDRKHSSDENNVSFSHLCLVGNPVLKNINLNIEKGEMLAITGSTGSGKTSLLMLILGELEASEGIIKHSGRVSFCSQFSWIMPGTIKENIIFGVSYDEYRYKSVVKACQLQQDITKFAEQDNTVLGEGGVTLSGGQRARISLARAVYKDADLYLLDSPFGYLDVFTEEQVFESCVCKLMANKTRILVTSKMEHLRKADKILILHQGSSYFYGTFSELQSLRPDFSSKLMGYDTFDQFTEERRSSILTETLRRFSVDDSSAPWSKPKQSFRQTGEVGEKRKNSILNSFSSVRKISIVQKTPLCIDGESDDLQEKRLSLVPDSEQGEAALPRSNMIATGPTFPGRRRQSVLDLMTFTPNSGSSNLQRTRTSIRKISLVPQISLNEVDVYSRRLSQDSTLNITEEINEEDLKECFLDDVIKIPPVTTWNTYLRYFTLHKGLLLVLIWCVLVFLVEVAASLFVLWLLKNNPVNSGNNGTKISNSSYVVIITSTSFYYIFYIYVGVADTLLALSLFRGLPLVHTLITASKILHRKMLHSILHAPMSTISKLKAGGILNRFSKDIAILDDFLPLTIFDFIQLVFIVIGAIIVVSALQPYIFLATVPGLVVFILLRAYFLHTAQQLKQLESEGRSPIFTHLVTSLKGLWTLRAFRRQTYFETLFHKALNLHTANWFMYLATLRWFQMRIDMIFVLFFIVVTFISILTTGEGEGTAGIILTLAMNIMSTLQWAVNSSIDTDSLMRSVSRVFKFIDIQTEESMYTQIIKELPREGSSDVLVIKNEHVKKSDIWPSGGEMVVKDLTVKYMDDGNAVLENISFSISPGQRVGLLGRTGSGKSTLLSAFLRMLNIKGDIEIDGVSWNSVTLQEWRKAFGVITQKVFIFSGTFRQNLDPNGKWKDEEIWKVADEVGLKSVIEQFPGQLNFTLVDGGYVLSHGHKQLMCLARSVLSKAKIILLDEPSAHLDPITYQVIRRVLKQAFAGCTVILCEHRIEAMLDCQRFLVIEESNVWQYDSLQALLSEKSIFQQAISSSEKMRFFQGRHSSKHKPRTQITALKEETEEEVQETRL

CFTR protein expression in cerebral arteries [1]	Compound	cerebral artery CFTR protein expression in HF [2]	mean apical dendrite length (maximum radius), HF-induced reduction [3]	mean basal dendrite length (maximum radius), HF-induced reduction [3]	apical dendrite branching morphology (Sholl analysis) ([3]; HF mice, sham vs HF vs HF+C18)	basal dendrite branching morphology (Sholl analysis) ([3]; HF mice, sham vs HF vs HF+C18)	mean apical dendrite spine density at 60-100 μm from soma, group difference ([3]; HF mice, sham vs HF vs HF+C18)	interaction with wild-type CFTR / CFTR expression at the plasma membrane [4]	CFTR protein expression in cerebral arteries ([1]; 3 mg/kg)
higher	O=C(Nc1ncc(C(c2ccccc2Cl)N2CCC(O)C2)s1)C1(c2ccc3c(c2)OCO3)CC1 (stereo not drawn) [C18, 1-(benzo[d][1,3]dioxol-5-yl)-N-(5-((2-chlorophenyl)(3-hydroxypyrrolidin-1-yl)methyl)thiazol-2-yl)cyclopropanecarboxamide]	restores; also recorded: eliminates this reduction	normalized	normalized	No differences	no differences	does not reach statistical significance	directly interacts with and stabilizes wild-type CFTR	
	Cc1ccc(NC(=O)C2(c3ccc4c(c3)OC(F)(F)O4)CC2)nc1-c1cccc(C(=O)O)c1 [lumacaftor]								increases CFTR protein expression; also recorded: higher
